The values below come from US20220306695A1, “COMPSTATIN ANALOGUES AND THEIR MEDICAL USES” (priority 2019, published 2022).

The subject of this assay is classical complement pathway. Kind of assay: In vitro haemolysis assay (inhibition of classical complement pathway). In kind it is cell-based, human. The essentials: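 Serially diluted compound (9 points) was preincubated 15 min at room temperature with diluted human serum, titrated per batch to give 70-90% maximal haemolysis, in Tris/casein buffer pH 7.4 with Mg2+/Ca2+. Antibody-sensitized sheep erythrocytes were then added for 30 min at 37° C, and the reaction was stopped with EDTA. Haemolysis was read at A405, with IC50 from 4PL fit.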

The mark [1] stands for this setting: Table 3, human serum, sensitized sheep red blood cells, read-out: IC50[nM], in vitro analysis of inhibition of hemolysis.
Setting [2] is: Table 4, valine 3 versus isoleucine 3 pairs, read-out: CP hemolysis IC50.

Structures are written as SMILES. Like-named read-outs stand apart in the source and are kept apart here. Starred links: 1 amine or outer side, 2 acyl side, 3 side chain; linkers in the order of their positions; H or OH if unused. Positions of bridges follow the written chain, without caps; N, C: chain ends. Non-standard residues stand in square brackets, D forms with d. Residues, ends and D or L forms follow the SMILES beside them. Groups on a side chain read outwards from the residue. *: point of attachment. Trp(1-Me) = Cn1cc(C[C@H](N)C(=O)O)c2ccccc21; Abu(4-yl) = O=C([C@H](CC[*:3])N[*:1])[*:2]; C18 diacid = O=C(O)CCCCCCCCCCCCCCCCC(=O)*; C16 diacid = O=C(O)CCCCCCCCCCCCCCC(=O)*; γGlu = O=C(O)[C@H](CCC(=O)[*:2])N[*:1]; AEEA = NCCOCCOCC(=O)O; Sar = CNCC(=O)O

For `CC[C@H](C)[C@@H]1NC(=O)[C@@H](NC(=O)[C@H](Cc2ccccc2)NC(=O)[C@H](CCC(=O)O)NC(=O)[C@H](CO)NC(C)=O)CCSC[C@@H](C(=O)N[C@H](C(=O)N[C@@H](CCC(=O)O)C(=O)NCC(=O)N[C@@H](CCC(=O)O)C(=O)NCCOCCOCC(=O)N[C@@H](CCC(=O)O)C(=O)N[C@@H](CO)C(=O)N[C@@H](CCCCNC(=O)CC[C@H](NC(=O)CCCCCCCCCCCCCCCCC(=O)O)C(=O)O)C(N)=O)[C@@H](C)O)NC(=O)[C@H](CCCNC(=N)N)NC(=O)[C@H](Cc2c[nH]cn2)NC(=O)[C@H](CCC(=O)O)NC(=O)CNC(=O)[C@H](Cc2c[nH]c3ccccc23)NC(=O)[C@H](CC(=O)O)NC(=O)[C@H](CCC(N)=O)NC(=O)[C@H](Cc2cn(C)c3ccccc23)NC1=O` [Compound 165] (Ac-SEF[Abu(4-yl)]I[Trp(1-Me)]QDWGEHRCTEGE[AEEA]ESK([γGlu-C18 diacid])-NH2; thioether 4-14), the IC50 under setting [1] was < 250 nM.
On the same count and under the same terms, as for `CC[C@H](C)[C@H](NC(=O)[C@H](C)NC(=O)[C@H](CO)NC(=O)CNC(=O)[C@H](CCCCNC(=O)COCCOCCNC(=O)COCCOCCNC(=O)CC[C@H](NC(=O)CCCCCCCCCCCCCCC(=O)O)C(=O)O)NC(C)=O)C(=O)N[C@H]1CSSC[C@@H](C(=O)N[C@H](C(=O)N[C@@H](CCC(=O)O)C(=O)NCC(=O)N[C@@H](CCC(=O)O)C(N)=O)[C@@H](C)O)NC(=O)[C@H](CCCNC(=N)N)NC(=O)[C@H](Cc2c[nH]cn2)NC(=O)[C@H](CCC(=O)O)NC(=O)CNC(=O)[C@H](Cc2c[nH]c3ccccc23)NC(=O)[C@H](CC(=O)O)NC(=O)[C@H](CCC(N)=O)NC(=O)[C@H](Cc2c[nH]c3ccccc23)NC(=O)[C@H]([C@@H](C)CC)NC1=O` [Compound 100] (Ac-K([AEEA-AEEA-γGlu-C16 diacid])GSAICIWQDWGEHRCTEGE-NH2; disulfide 6-16), the figure is < 500 nM.
Regarding `CC[C@H](C)[C@H](NC(=O)[C@H](C)NC(=O)[C@H](CO)NC(=O)CNC(=O)[C@H](CCC(=O)O)NC(C)=O)C(=O)N[C@H]1CSSC[C@@H](C(=O)N(C)CC(=O)N[C@@H](CCC(=O)O)C(N)=O)NC(=O)[C@H](CCCNC(=N)N)NC(=O)[C@H](Cc2c[nH]cn2)NC(=O)[C@H](CCC(=O)O)NC(=O)CNC(=O)[C@H](Cc2c[nH]c3ccccc23)NC(=O)[C@H](CC(=O)O)NC(=O)[C@H](CCC(N)=O)NC(=O)[C@H](Cc2c[nH]c3ccccc23)NC(=O)[C@H](C(C)C)NC1=O` [H, reference compound] (Ac-EGSAICVWQDWGEHRC[Sar]E-NH2; disulfide 6-16), under setting [2], the IC50 came to 330 nM.
On to `CC[C@H](C)[C@@H]1NC(=O)[C@@H](NC(=O)CN(C)C(=O)[C@H](CCC(=O)O)NC(=O)[C@H](CO)NC(C)=O)CSSC[C@@H](C(=O)N(C)CC(=O)N[C@@H](CCC(=O)O)C(=O)N[C@@H](C)C(N)=O)NC(=O)[C@H](CCCNC(=N)N)NC(=O)[C@H](Cc2c[nH]cn2)NC(=O)[C@H](CCC(=O)O)NC(=O)CNC(=O)[C@H](Cc2c[nH]c3ccccc23)NC(=O)[C@H](CCC(=O)O)NC(=O)[C@H](CCC(N)=O)NC(=O)[C@H](Cc2cn(C)c3ccccc23)NC1=O` [Compound 90] (Ac-SE[Sar]CI[Trp(1-Me)]QEWGEHRC[Sar]EA-NH2; disulfide 4-14), for which the IC50 under setting [1] is < 250 nM.
The same measure, in the same setting: under `CC[C@H](C)[C@@H]1NC(=O)[C@@H](NC(=O)[C@H](Cc2ccccc2)NC(=O)[C@H](CCC(=O)O)NC(=O)[C@H](CO)NC(C)=O)CSSC[C@@H](C(=O)N(C)CC(=O)N[C@@H](CCC(=O)O)C(=O)NCC(=O)N[C@@H](CCC(=O)O)C(=O)NCCOCCOCC(=O)NCCOCCOCC(=O)NCCOCCOCC(=O)N[C@@H](CCCCNC(=O)CC[C@H](NC(=O)CNC(=O)CC[C@H](NC(=O)CCCCCCCCCCCCCCCCC(=O)O)C(=O)O)C(=O)O)C(N)=O)NC(=O)[C@H](CCCNC(=N)N)NC(=O)[C@H](Cc2c[nH]cn2)NC(=O)[C@H](CCC(=O)O)NC(=O)CNC(=O)[C@H](Cc2c[nH]c3ccccc23)NC(=O)[C@H](CC(=O)O)NC(=O)[C@H](CCC(N)=O)NC(=O)[C@H](Cc2cn(C)c3ccccc23)NC1=O` [Compound 143] (Ac-SEFCI[Trp(1-Me)]QDWGEHRC[Sar]EGE[AEEA][AEEA][AEEA]K([γGlu-Gly-γGlu-C18 diacid])-NH2; disulfide 4-14) stands < 100 nM; under `CC[C@H](C)[C@@H]1NC(=O)[C@@H](NC(=O)[C@H](Cc2ccccc2)NC(=O)[C@H](CCC(=O)O)NC(=O)[C@H](CO)NC(C)=O)CSSC[C@@H](C(=O)N(C)CC(=O)N[C@@H](CCC(=O)O)C(=O)N[C@@H](CCCCN)C(=O)N[C@@H](CCC(=O)NCC(=O)NCC(=O)NCC(=O)N[C@@H](CCCCNC(=O)CC[C@H](NC(=O)CNC(=O)CC[C@H](NC(=O)CCCCCCCCCCCCCCCCC(=O)O)C(=O)O)C(=O)O)C(N)=O)C(=O)O)NC(=O)[C@H](CCCNC(=N)N)NC(=O)[C@H](Cc2c[nH]cn2)NC(=O)[C@H](CCC(=O)O)NC(=O)CNC(=O)[C@H](Cc2c[nH]c3ccccc23)NC(=O)[C@H](CC(=O)O)NC(=O)[C@H](CCC(N)=O)NC(=O)[C@H](Cc2cn(C)c3ccccc23)NC1=O` [Compound 132] (Ac-SEFCI[Trp(1-Me)]QDWGEHRC[Sar]EK[γGlu]GGGK([γGlu-Gly-γGlu-C18 diacid])-NH2; disulfide 4-14), < 100 nM.
Still for that read-out and setting: as for `CC[C@H](C)[C@H](NC(C)=O)C(=O)N[C@H]1CSSC[C@@H](C(=O)N(C)CC(N)=O)NC(=O)[C@H](CCCNC(=N)N)NC(=O)[C@H](Cc2c[nH]cn2)NC(=O)[C@H](CCC(=O)O)NC(=O)CNC(=O)[C@H](Cc2c[nH]c3ccccc23)NC(=O)[C@H](CC(=O)O)NC(=O)[C@H](CCC(N)=O)NC(=O)[C@H](Cc2c[nH]c3ccccc23)NC(=O)[C@H]([C@@H](C)CC)NC1=O` [Compound 13] (Ac-ICIWQDWGEHRC[Sar]-NH2; disulfide 2-12), the figure is < 100 nM.
Regarding `CC[C@H](C)[C@H](NC(=O)[C@H](C)NC(=O)[C@H](CO)NC(=O)[C@H](CO)NC(=O)[C@H](CCC(=O)O)NC(C)=O)C(=O)N[C@H]1CSSC[C@@H](C(=O)N[C@H](C(N)=O)[C@@H](C)O)NC(=O)[C@H](CCCNC(=N)N)NC(=O)[C@H](Cc2c[nH]cn2)NC(=O)[C@H](CCC(=O)O)NC(=O)CNC(=O)[C@H](Cc2c[nH]c3ccccc23)NC(=O)[C@H](CC(=O)O)NC(=O)[C@H](CCC(N)=O)NC(=O)[C@H](Cc2c[nH]c3ccccc23)NC(=O)[C@H](C(C)C)NC1=O` [C, reference compound] (Ac-ESSAICVWQDWGEHRCT-NH2; disulfide 6-16), the IC50 under setting [2] was 300 nM.
As to `CC[C@H](C)[C@@H]1NC(=O)[C@@H](NC(=O)CN(C)C(=O)[C@H](CCC(=O)O)NC(=O)CNC(C)=O)CSSC[C@@H](C(=O)N[C@H](C(=O)N[C@@H](CCC(=O)O)C(=O)N[C@@H](C)C(N)=O)[C@@H](C)O)NC(=O)[C@H](CCCNC(=N)N)NC(=O)[C@H](Cc2c[nH]cn2)NC(=O)[C@H](CCC(=O)O)NC(=O)CNC(=O)[C@H](Cc2c[nH]c3ccccc23)NC(=O)[C@H](CC(=O)O)NC(=O)[C@H](CCC(N)=O)NC(=O)[C@H](Cc2cn(C)c3ccccc23)NC1=O` [Compound 88] (Ac-GE[Sar]CI[Trp(1-Me)]QDWGEHRCTEA-NH2; disulfide 4-14), the half-inhibitory concentration (IC50) under setting [1] is < 100 nM.
On the same count and under the same terms, as for `CC[C@H](C)[C@@H]1NC(=O)[C@@H](NC(=O)[C@H](Cc2ccccc2)NC(=O)[C@H](CCC(=O)O)NC(=O)[C@H](CO)NC(C)=O)CSCC[C@@H](C(=O)N(C)CC(=O)N[C@@H](CCC(=O)O)C(=O)NCC(=O)N[C@@H](CCC(=O)O)C(=O)NCCOCCOCC(=O)NCCOCCOCC(=O)N[C@@H](CCCCNC(=O)CC[C@H](NC(=O)CNC(=O)CC[C@H](NC(=O)CCCCCCCCCCCCCCC(=O)O)C(=O)O)C(=O)O)C(N)=O)NC(=O)[C@H](CCCNC(=N)N)NC(=O)[C@H](Cc2c[nH]cn2)NC(=O)[C@H](CCC(=O)O)NC(=O)CNC(=O)[C@H](Cc2c[nH]c3ccccc23)NC(=O)[C@H](CC(=O)O)NC(=O)[C@H](CCC(N)=O)NC(=O)[C@H](Cc2cn(C)c3ccccc23)NC1=O` [Compound 160, Ac-SEFA(1)I[1-Me-Trp]QDWGEHRhC(1)[Sar]EGE[Peg3][Peg3]-K([15-carboxy-pentadecanoyl][γGlu]G[γGlu])-NH2] (Ac-SEFCI[Trp(1-Me)]QDWGEHR[Abu(4-yl)][Sar]EGE[AEEA][AEEA]K([γGlu-Gly-γGlu-C16 diacid])-NH2; thioether 4-14), the figure is < 100 nM.
The same measure, in the same setting: under `CC[C@H](C)[C@@H]1NC(=O)[C@@H](NC(=O)[C@H](Cc2ccccc2)NC(=O)[C@H](CCC(=O)O)NC(=O)CNC(C)=O)CSCC[C@@H](C(=O)N(C)CC(=O)N[C@@H](CCC(=O)O)C(=O)N[C@@H](C)C(=O)N[C@@H](CCC(=O)O)C(=O)NCCOCCOCC(=O)NCCOCCOCC(=O)N[C@@H](CCCCNC(=O)CC[C@H](NC(=O)CNC(=O)CC[C@H](NC(=O)CCCCCCCCCCCCCCCCC(=O)O)C(=O)O)C(=O)O)C(N)=O)NC(=O)[C@H](CCCNC(=N)N)NC(=O)[C@H](Cc2c[nH]cn2)NC(=O)[C@H](CCC(=O)O)NC(=O)CN(C)C(=O)[C@H](Cc2c[nH]c3ccccc23)NC(=O)[C@H](CC(=O)O)NC(=O)[C@H](CCC(N)=O)NC(=O)[C@H](Cc2cn(C)c3ccccc23)NC1=O` [Compound 149, Ac-GEFA(1)I[1-Me-Trp]QDW[Sar]EHRhC(1)[Sar]EAE[Peg3][Peg3]-K([17-carboxy-heptadecanoyl][γGlu]G[γGlu])-NH2] (Ac-GEFCI[Trp(1-Me)]QDW[Sar]EHR[Abu(4-yl)][Sar]EAE[AEEA][AEEA]K([γGlu-Gly-γGlu-C18 diacid])-NH2; thioether 4-14) stands < 100 nM.
For the compound `CC[C@H](C)[C@H](NC(C)=O)C(=O)N[C@H]1CSSC[C@@H](C(=O)N[C@H](C(N)=O)[C@@H](C)O)NC(=O)[C@H](CCCNC(=N)N)NC(=O)[C@H](Cc2c[nH]cn2)NC(=O)[C@H](C)NC(=O)CNC(=O)[C@H](Cc2c[nH]c3ccccc23)NC(=O)[C@H](CC(=O)O)NC(=O)[C@H](CCC(N)=O)NC(=O)[C@H](Cc2c[nH]c3ccccc23)NC(=O)[C@H](C(C)C)NC1=O` [Compound 4W9A, reference compound], the IC50 was 250 nM (Table 2, human serum, sensitized sheep red blood cells, read-out: CP hemolysis IC50) and < 500 nM under setting [1].

For orientation: IC50 means the concentration that gives 50% inhibition.
